In patent US20110256121A1, “METHODS AND KITS FOR DIAGNOSING OR MONITORING AUTOIMMUNE AND CHRONIC INFLAMMATORY DISEASES” (THE REGENTS OF THE UNIVERSITY OF MICHIGAN, priority 2008, published 2011):

Test system: KIR2DL4 promoter
Assay: KIR2DL4 promoter reporter construct assay in T cells
Type: cell-based, human
Experimental: Reporter construct assays. Amplified KIR promoter fragments were subcloned into the EcoRI site of the promoterless pmaxFP-Yellow-PRL vector (Amaxa GmbH). Plasmids were purified using QIAGEN EndoFree Plasmid Kits (QIAGEN), and 2 μg of DNA transfected into untreated or 5-azaC treated human T cells using the human T cell nucleofector kit (Amaxa GmbH) and the manufacturer's protocol. Controls included cotransfection with pmaxGFP (Amaxa GmbH) and transfection with the promoterless reporter vector. Fluorescence was measured by flow cytometry. Site directed mutagenesis. Mutations were introduced into the same pmaxFP-Yellow-PRL KIR2DL2 and KIR2DL4 promoter constructs using the QuickChange Multi Site-Directed Mutagenesis Kit (Stratagene, La Jolla, Calif.). The changes include a […]→[…] mutation at −78→−71 in the Sp1 site, a CCC→ACA mutation at −61→−59 in the Ets1 site, or both, in the KIR2DL2 promoter, and a TTT→GGG mutation at −73→−71 in the Ets1 site, a CCC→ACA mutation at −61→−59 in the Ets1 site, or both, in the KIR2DL4 promoter. A separate G→A mutation in the AML site was also introduced into both promoters at −98 (16; 17). The constructs were transfected in to PHA stimulated, 5-azaC treated T cells as above. Controls included transfection with pmaxGFP.
Effects of 5-azaC on KIR transcriptional activator-DNA interactions. […]

Nc1ncn([C@@H]2O[C@H](CO)[C@@H](O)[C@H]2O)c(=O)n1 [5-azaC, 5-azacytidine]
increase of KIR2DL4 promoter function (5-azaC treated vs untreated T cells, FIG. 29b, p<0.005): 3-4 fold | increase of expression of the unmodified KIR2DL4 construct (relative to untreated T cells, FIG. 29c): ~3 fold
